The nature of test [1]: Inhibitory activity was determined against almonds Beta-glucosidase.
Test [2] can be described thus: Inhibitory activity was determined against bovine liver beta galactosidase.
A short description of test [3]: Inhibitory activity was determined against Escherichia coli beta galactosidase.

A word on the IC50: it is the point on the concentration scale where inhibition reaches its midpoint.

With `OCC1C(O)C(O)C2OC(Nc3ccccc3)=NC12` (stereo unspecified) [4-Hydroxymethyl-2-phenylamino-4,5,6,6a-tetrahydro-3aH-cyclopentaoxazole-5,6-diol], the results for the half-inhibitory concentration (IC50) in test [1], in test [2] and in test [3] were > 300 µM, 3 µM and > 300 µM, respectively.

For `OCC1(O)C(O)C(O)C2N=C(Nc3ccccc3)OC21` (stereo unspecified) [6-Hydroxymethyl-2-phenylamino-4,5,6,6a-tetrahydro-3aH-cyclopentaoxazole-4,5,6-triol], the half-maximal inhibitory concentration (IC50) is > 300 µM in test [1], 153 µM in test [2] and > 300 µM in test [3].

(Values after BindingDB's records for doi:10.1016/S0960-894X(01)80688-0 (1994).)
